Test results: US9192675B2, “Dry powder inhaler and system for drug delivery” (MannKind Corporation, priority 2008, dated 2015)

Experiment: Solubility of FDKP as a function of pH
Assay type: physicochemical
Excerpt: These properties allow FDKP to crystallize under acidic conditions and the crystals self-assemble to form particles. The particles dissolve readily under physiological conditions where the pH is neutral. As noted, microparticles having a diameter of between about 0.5 and about 10 microns can reach the lungs, successfully passing most of the natural barriers. Particles in this size range can be readily prepared from FDKP.

Structure (SMILES): O=C(O)/C=C/C(=O)NCCCCC1NC(=O)C(CCCCNC(=O)/C=C/C(=O)O)NC1=O (centres unmarked) [FDKP, bis-3,6-(N-fumaryl-4-aminobutyl)-2,5-diketopiperazine]
- solubility (in acid): low solubility in acid
- solubility (neutral or basic pH): readily soluble at neutral or basic pH
